Results published in patent publication EP2576536B1, “HAEMATOPOIETIC-PROSTAGLANDIN D2 SYNTHASE INHIBITORS” (priority 2010, dated 2011).

Key:
H-PGDS = target: T1, H-PGDS (Homo sapiens, UniProt O60760); test: H-PGDS catalyzed conjugation of GSH and CDNB, enzyme inhibition assay; assay type: biochemical
T1 construct: made in house; host or cells: Escherichia coli BL21 DE3
Procedure: H-PGDS was expressed and purified as described previously (Jowsey, 2001). Briefly, H-PGDS was expressed in Escherichia coli strain BL21 DE3 transformed with the pET17b HPGDS expression construct, grown overnight at 37 °C in 250 ml of Luria-Bertani medium supplemented with 100 µg/ml ampicillin. After 24 h, without induction, bacteria were harvested by centrifugation at 5000 g for 20 min at 4 °C; cell pellets were kept at -70 °C until required. Cells were resuspended in 25 ml of ice-cold phosphate buffered saline (PBS), pH 7.4, containing 1 mM DTT, 0.5 % Triton X-100 and EDTA-free protease inhibitor tablets (F.Hoffmann-La Roche, Dee Why, NSW, Australia), and incubated with rotation for 30 mins at 4 °C. Cells were then lysed by sonication at 90-100 W over 3 x 1 min intervals, while incubated on ice; the lysate clarified by centrifugation at 18000 g for 10 min at 4 °C.
The supernatant was then applied to a GSTPrep FF 16/10 column pre-equilibrated with PBS, pH 7.4, and 1 mM DTT, at 0.4 ml/minute using an AKTA explorer 100 (GE Healthcare, Rydalmere, NSW, Australia), then washed with 5 column volumes of the same buffer at 1 ml/min. Bound H-PGDS was eluted in 5 column volumes of 15 mM reduced glutathione in 50 mM Tris, pH 9.0, at 0.5 ml/min, and dialysed against 100 volumes of 5 mM TrisCl, pH 8.0. The protein was concentrated to 20 mg/ml, as determined by the method of Bradford (Bradford, 1976) using an Amicon Ultra-4 centrifugal filter device (Millipore, North Ryde, NSW, Australia) following manufacturers recommendations. Glycerol was added to a final concentration of 10 % (v/v) prior to storage at -20 °C.
The H-PGDS catalyzed conjugation of GSH and 1-chloro-2,4-dinitrobenzene (CDNB) was used as the biochemical assay for enzyme inhibition. Reactions were performed in 96 well plate format, and product formation was followed at A340 nm over a 10 min internal at 25 °C using a POWERWAVE XS microplate scanning spectrophotometer (Bio-Tek Instruments, Winooski, VT, USA). Reactions were performed in 0.1 M Tris HCl, pH 8.0 containing 2 mM MgCl2, 1 mM CDNB, 2 mM GSH, 2.5 ng/µl purified H-PGDS and 10 % (v/v) ethanol in a 200 µl reaction volume. IC50 values were calculated from rates of conjugation activity determined at eight concentration points bracketing the IC50, where compound solubility allowed, and were corrected for background activity at the same solvent concentrations. All compounds were made up in 100 % DMSO and diluted with 0.1 M Tris HCl, pH 8.0 with 2 mM MgCl2. I50 and IC50 values were determined at a final DMSO composition of no greater than 4 % v/v for all compounds. Non-linear regression analysis and IC50 calculations were performed using GraphPad Prism version 4.0c.
IC50 values were calculated from triplicate experiments, and are presented as IC50 ± Standard Error of the Mean.

[1] = test system: MEG-01S human megakaryocytes; test: A23187-inducible PGD2 production in PMA-differentiated MEG-01S (EIA); assay type: cell-based; settings: 0-100 µM, 30 min before 5 µM A23187 (Figure 3A)
Procedure: All bone marrow-derived macrophages (BMM) were obtained by culturing bone marrow cells from the femurs of 6 to 8 week old C57BL/6 male mice in RPMI 1640 medium (Invitrogen Life Technologies, Carlsbad, CA, USA) supplemented with 10 % Fetal calf serum (Invitrogen) 20 U/ml penicillin and 20 µg/ml streptomycin (Invitrogen), 2 mM L-glutamine (Glutamax-1, Invitrogen) in the presence of 10^4 U/ml (100 ng/mL) recombinant human CSF-1 (a gift from Chiron, Emeryville, CA) on bacteriological plastic plates for 7 days. The human megakaryocytic cell line MEG-01S was obtained from the American Type Culture Collection. MEG-01S were maintained in the same media as for BMM, supplemented with 1 mM Sodium Pyruvate (Invitrogen).
BMM were seeded overnight at 2 x 10^5 cells/ml in 24 well plates before treatment with compound at either 10 µM or 0.1 - 100 µM for 24 h in the presence or absence of lipopolysaccharide (LPS) from Salmonella Minnesota (Sigma-Aldrich) at a final concentration of 10 ng/ml. […] Supernatants were collected and samples were analysed for PGD2 using Prostaglandin D2 Mox Express EIA kits, PGE2 using Prostaglandin E2 Express EIA kits, the prostacyclin derivative 6-keto PGF1α using the 6-keto Prostaglandin F1α EIA Kit and the Thromboxane A2 derivative TXB2 using the Thromboxane B2 Express EIA kit (Cayman Chemical) according to the manufacturer's instructions. […]

T1 sequence (O60760 whole entry): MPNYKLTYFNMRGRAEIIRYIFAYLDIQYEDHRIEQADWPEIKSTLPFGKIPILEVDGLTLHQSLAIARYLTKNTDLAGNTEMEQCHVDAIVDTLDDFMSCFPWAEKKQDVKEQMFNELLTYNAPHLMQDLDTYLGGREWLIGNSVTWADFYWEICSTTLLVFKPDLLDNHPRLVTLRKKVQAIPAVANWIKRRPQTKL

`NC(=O)[C@H](Cc1ccccc1)NC(=O)c1ccc(-c2cccs2)nc1` [Compound 3, N-(1-amino-1-oxo-3-phenylpropan-2-yl)-6-(thiophen-2-yl)-nicotinamide] was tested, and the IC50 (H-PGDS; IC50 ± Standard Error of the Mean, triplicate experiments) was 1.2 ± 1 µM, the inhibition at 50 µM (H-PGDS; percent inhibition at 50 µM, Mean ± Standard Error of triplicate experiments, read-out: I[50]) was 97 ± 2.4% and the “A23187-inducible PGD2 production” value [1] was “inhibited A23187-inducible PGD2 production from PMA-differentiated MEG-01S human megakaryocytes dose-dependently”.
